The values below come from ChEMBL document CHEMBL4028829, “New derivatives of ursolic acid through the biotransformation by Bacillus megaterium CGMCC 1.1741 as inhibitors on nitric oxide production” (Bioorg Med Chem Lett, 2017).

The subject of series [1] is RAW264.7. The series can be described thus: Inhibition of LPS-induced NO production in mouse RAW264.7 cells preincubated for 1 hr followed by LPS stimulation measured after 24 hrs by Griess assay. The series is classed as functional, cell-based.
Series [2] relates to RAW264.7. The series can be described thus: Pro-inflammatory activity in mouse RAW264.7 cells assessed as LPS-induced NO production at 0.625 to 60 uM preincubated for 1 hr followed by LPS stimulation measured after 24 hrs by Griess assay. The settings on record: raw264.7, 24 h. Type of series: ADME, cell-based.
[3] abbreviates: Mus musculus, RAW264.7, read-out: IC50.

As for `C[C@H]1[C@H](C)CC[C@@]23CC[C@]4(C)[C@@](C=C[C@@H]5[C@@]6(C)[C@H](O)CC(=O)C(C)(C)[C@@H]6CC[C@]54C)(OC2=O)[C@H]13`, in the series on RAW264.7 [1] (setting [3]), the IC50 came out at 1.71 µM.

For `O=c1c(O)c(-c2ccc(O)c(O)c2)oc2cc(O)cc(O)c12` [QUERCETIN], the half-inhibitory concentration (IC50) in the series on RAW264.7 [1] (setting [3]) was 4.41 µM. For `C[C@H]1[C@H](C)CC[C@]2(C(=O)O[C@@H]3O[C@H](CO)[C@@H](O)[C@H](O)[C@H]3O)CC[C@]3(C)C(=C[C@@H](O)[C@@H]4[C@@]5(C)[C@H](O)CC(=O)C(C)(C)[C@@H]5CC[C@]43C)[C@H]12`, the IC50 in the series on RAW264.7 [1] (setting [3]) was greater than 60 µM. With `C[C@H]1[C@H](C)CC[C@]2(C(=O)O)CC[C@]3(C)C(=CC[C@@H]4[C@@]5(C)CC[C@H](O)C(C)(C)[C@@H]5CC[C@]43C)[C@H]12` [URSOLIC ACID], the IC50 result with RAW264.7 [1] (raw264.7) is “Not Active”. In addition, in the series with RAW264.7 [2], the Activity entry is given as “Toxic”. Regarding `C[C@H]1[C@H](C)CC[C@]2(C(=O)O)CC[C@]3(C)C(=C[C@@H](O)[C@@H]4[C@@]5(C)[C@H](O)C[C@H](O)C(C)(C)[C@@H]5CC[C@]43C)[C@H]12`, the IC50 with RAW264.7 [1] (setting [3]) is 40.1 µM. As to `C[C@H]1[C@H](C)CC[C@]2(C(=O)O)CC[C@]3(C)C(=C[C@@H](O)[C@@H]4[C@@]5(C)[C@H](O)CC(=O)C(C)(C)[C@@H]5CC[C@]43C)[C@H]12`, in the series with RAW264.7 [1] (setting [3]), the IC50 came to 1.24 µM.

Consider `C[C@H]1[C@H](C)CC[C@]2(C(=O)O)CC[C@]3(C)C(=CC[C@@H]4[C@@]5(C)CCC(=O)C(C)(C)[C@@H]5CC[C@]43C)[C@H]12` [URSONIC ACID], for which, in the series on RAW264.7 [1] (setting [3]), the IC50 is 4.94 µM.
